{"source": "patent US9976141B2", "about": "“Compositions and methods for inhibiting gene expression of Hif2alpha” (Arrowhead Madison Inc., priority 2015, dated 2018)", "tested_on": "human (tumor) Hif2α (EPAS1) mRNA", "assay": "Hif2α knockdown in orthotopic RCC tumor bearing mice, single injection of RNAi trigger-delivery polymer conjugate, RT-qPCR (Table 7)", "format": "in vivo", "details": "single tail vein injection, relative to isotonic glucose", "procedure,_shortened": "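Female athymic nude mice carried orthotopic A498-SEAP ccRCC kidney tumours, used 5–6 weeks after implantation. They received one tail-vein injection of RGD-targeted Hif2α RNAi trigger–polymer conjugate or isotonic glucose. Tumour Hif2α mRNA was measured by TaqMan RT-qPCR normalised to CycA (ΔΔCT) and expressed relative to glucose-treated mice.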", "key": {"[1]": {"details": "RNAi trigger 115 μg, polymer 100A 375 μg"}, "[2]": {"details": "RNAi trigger 150 μg, polymer 100A 300 μg"}}, "note": "Strand notation (5' to 3'): a small letter for the sugar, then the base; units joined by * are phosphorothioate-linked, units joined directly phosphodiester-linked; [ ] holds rarer units or linkages, { } end groups; capitals alone tell only the bases. {Alk-SMPT-C6} = Alk-SMPT-C6 linker modification (publication code); [invdT] = inverted (3'-3') thymidine; d = 2'-deoxy (DNA); m = 2'-O-methyl; f = 2'-fluoro"}
{"substance": "AD01476 (antisense dTfUmUfCmAfUmGfAmAfAmUfCmGfUmUfAmCfGmUdT*dT; sense ACGUAACGAUUUCAUGAAA; siRNA; sense: sugars from the 5' end fmfmfmfmfmfmfmfmfmf, [invdT] at 3' end, all phosphodiester, 5' {Alk-SMPT-C6}, methylation of C not given here; further chemistry not fully specified)", "values": [{"measurement": "Relative Expression day 4 (Hif2α mRNA in kidney tumor)", "setting": "[1]", "result": 0.32}]}
{"substance": "AD01407 (antisense TUUCAUGAAAUCGUUACGUCGGCUAU; sense UAUAUCGACGUAACGAUUUCAUGAAA; Hif2alpha RNAi agent antisense strand; modified_base 25 modified base = “2′-hydroxy corresponding nucleoside”; modified_base 2,4,6,10,12,14,16,18,20 /mod_base = “2′-deoxy-2′-fluoro corresponding nucleoside”; modified_base 3,5,7,9,11,13,15,17,19,21,22,23,24,26 /mod_base = “2′-O-methyl corresponding nucleoside”; modified_base 8 /mod_base = “2′-3′ seco corresponding nucleotide”; modified_base 2,24 /m; Hif2alpha RNAi agent sense strand; modified_base 2,4 modified base = “2′-hydroxy corresponding nucleoside”; modified_base 6,8,10,12,14,16,18,20,22,24,26 /mod_base = “2′-deoxy-2′-fluoro correspondi)", "values": [{"measurement": "Relative Expression day 4 (Hif2α mRNA in kidney tumor)", "setting": "[2]", "result": 0.47}]}
{"substance": "AD02691 (antisense UUUCAUGAAAUCGUUACGUUG; sense ACGUAACGAUUUCAUGAAAT; Hif2alpha RNAi agent antisense strand; modified_base 2,4,6,8,10,14,16,18 /mod_base = “2′-deoxy-2′-fluoro corresponding nucleoside”; modified_base 1,3,5,7,9,11,12,13,15,17,19,20,21 /mod_base = “2′-O-methyl corresponding nucleoside”; modified_base 2,3,20,21 /mod_base = “5′-phosphorothioate corresponding nucleotide”; Hif2alpha RNAi agent sense strand; modified_base 1,3,5,7,8,9,11,13,15,17 /mod_base = “2′-deoxy-2′-fluoro corresponding nucleoside”; modified_base 2,4,6,10,12,14,16,18,19 /mod_base = “2′-O-methyl corresponding nucleoside”; modified_base 20 /mod_base = “3′-3′-linked nucleotide”; modi)", "values": [{"measurement": "Relative Expression day 4 (Hif2α mRNA in kidney tumor)", "setting": "RNAi trigger 75 μg, polymer 064 187.5 μg", "result": 0.124}]}
{"substance": "AD01523 (antisense TUUCAUGAAAUCGUUACGUTT; sense ACGUAACGAUUUCAUGAAAT; Hif2alpha RNAi agent antisense strand; modified_base 2,4,6,8,10,13,14,16,18 /mod_base = “2′-deoxy-2′-fluoro corresponding nucleoside”; modified_base 3,5,7,9,11,12,15,17,19 /mod_base = “2′-O-methyl corresponding nucleoside”; modified_base 21 /mod_base = “5′-phosphorothioate corresponding nucleotide”; Hif2alpha RNAi agent sense strand; modified_base 1,3,5,8,9,11,13,15,17,19 /mod_base = “2′-deoxy-2′-fluoro corresponding nucleoside”; modified_base 2,4,6,7,10,12,14,16,18 /mod_base = “2′-O-methyl corresponding nucleoside”; modified_base 20 /mod_base = “3′-3′-linked nucleotide”; modified_base 1 /mo)", "values": [{"measurement": "Relative Expression day 4 (Hif2α mRNA in kidney tumor)", "setting": "[1]", "result": 0.49}]}
{"substance": "AD01892 (antisense UGUAAAACAAUUGUGUACUTT; sense AGUACACAAUUGUUUUACAT; Hif2alpha RNAi agent antisense strand; modified_base 2,4,6,8,10,12,14,15,18 /mod_base = “2′-deoxy-2′-fluoro corresponding nucleoside”; modified_base 1,3,5,7,9,11,13,16,17,19 /mod_base = “2′-O-methyl corresponding nucleoside”; modified_base 2,3,21 /mod_base = “5′-phosphorothioate corresponding nucleotide”; Hif2alpha RNAi agent sense strand; modified_base 1,3,4,7,9,11,13,15,17,19 /mod_base = “2′-deoxy-2′-fluoro corresponding nucleoside”; modified_base 2,5,6,8,10,12,14,16,18 /mod_base = “2′-O-methyl corresponding nucleoside”; modified_base 20 /mod_base = “3′-3′-linked nucleotide”; modified_base)", "values": [{"measurement": "Relative Expression day 4 (Hif2α mRNA in kidney tumor)", "setting": "RNAi trigger 100 μg, polymer 064 250 μg", "result": 0.146}]}
{"substance": "AD01293 (antisense TUUCAUGAAAUCGUUACGUUGGCUGU; sense UAUAUCAACGUAACGAUUUCAUGAAA; Hif2alpha RNAi agent antisense strand; modified_base 25 modified base = “2′-hydroxy corresponding nucleoside”; modified_base 2,4,6,8,10,14,16,18,20 /mod_base = “2′-deoxy-2′-fluoro corresponding nucleoside”; modified_base 3,5,7,9,11,12,13,15,17,19,21,22,23,24,26 /mod_base = “2′-O-methyl corresponding nucleoside”; modified_base 2,3,23,24 /mod_base = “5′-phosphorothioate corresponding nucleotide”; Hif2alpha RNAi agent sense strand; modified_base 2,4 modified base = “2′-hydroxy corresponding nucleoside”; modified_base 6,8,10,12,14,15,16,18,20,22,24,26 /mod_base = “2′-deoxy-2′-fluoro correspondin)", "values": [{"measurement": "Relative Expression day 4 (Hif2α mRNA in kidney tumor)", "setting": "RNAi trigger 80 μg, polymer 126 400 μg", "result": 0.20}]}
{"substance": "AD01406 (antisense TUUCAUGAAAUCGUUACGUCGGCUAU; sense UAUAUCGACGUAACGAUUUCAUGAAA; Hif2alpha RNAi agent antisense strand; modified_base 25 modified base = “2′-hydroxy corresponding nucleoside”; modified_base 2,4,6,10,12,14,16,18,20 /mod_base = “2′-deoxy-2′-fluoro corresponding nucleoside”; modified_base 3,5,7,9,11,13,15,17,19,21,22,23,24,26 /mod_base = “2′-O-methyl corresponding nucleoside”; modified_base 8 /mod_base = “2′-3′ seco corresponding nucleotide”; modified_base 2,24 /m; Hif2alpha RNAi agent sense strand; modified_base 2,4 modified base = “2′-hydroxy corresponding nucleoside”; modified_base 6,8,10,12,14,16,18,20,22,24,26 /mod_base = “2′-deoxy-2′-fluoro correspondi)", "values": [{"measurement": "Relative Expression day 4 (Hif2α mRNA in kidney tumor)", "setting": "[2]", "result": 0.45}]}
